4 compounds from paper PMC2737262 (Bioorganic & medicinal chemistry letters, 2009) can be followed below.

One may read the CC50 as the concentration that lowers cell viability or growth by half. Read a low CC50 as greater toxicity to the cells. As a reminder, the EC50 is the midpoint of the concentration-response curve. A high value points to weaker potency.

A value given as a limit tells only on which side of the number the result lay.

Data set [1] concerns wild-type HIV-1 IIIB in MT-2 human T-cells. In words: MTT colorimetric assay, survival of HIV-infected MT-2 cells. It is filed as cell-based.

Compound `CC[C@H](C)[C@@H](CC(=O)N[C@@H](CCC(=O)O)CC(=O)O)NC(=O)C[C@@H](NC(=O)C[C@H](CCCN)NC(=O)C[C@H](Cc1c[nH]c2ccccc12)NC(=O)C[C@@H](NC(=O)C[C@H](CCC(=O)O)NC(=O)C[C@H](Cc1c[nH]c2ccccc12)NC(=O)C[C@@H](NC(=O)C[C@@H](N)CCCN)C(C)C)C(C)C)C(C)C` [βWWI-1] registered a CC50 with MT-2 cells of 100 ± 19.6 µM.

In data set [1], enfuvirtide came in with an EC50 of 0.0375 µM.

Turning to `CC[C@H](C)[C@@H](CC(=O)N[C@@H](CCC(=O)O)CC(=O)O)NC(=O)C[C@@H](NC(=O)C[C@H](CCCN)NC(=O)C[C@H](Cc1cccc(C(F)(F)F)c1)NC(=O)C[C@@H](NC(=O)C[C@H](CCC(=O)O)NC(=O)C[C@H](Cc1c[nH]c2ccccc12)NC(=O)C[C@@H](NC(=O)C[C@@H](N)CCCN)C(C)C)C(C)C)C(C)C` [βWXI-a], the CC50 with MT-2 cells is 150 ± 3.3 µM.

Consider `CC[C@H](C)[C@@H](CC(=O)N[C@@H](CCC(=O)O)CC(=O)O)NC(=O)C[C@@H](NC(=O)C[C@H](CCCN)NC(=O)C[C@H](Cc1cccnc1)NC(=O)C[C@@H](NC(=O)C[C@H](CCC(=O)O)NC(=O)C[C@H](Cc1c[nH]c2ccccc12)NC(=O)C[C@@H](NC(=O)C[C@@H](N)CCCN)C(C)C)C(C)C)C(C)C` [βWXI-b], for which the CC50 with MT-2 cells is above 250 µM.
